Where a SMILES comes first, the peptide text is derived from it. The star is where a group is joined. X1 = CC(C)CC(CP(=O)(O)[C@@H](N)CCc1ccccc1)C(=O)*
Biological target: Leucyl-cystinyl aminopeptidase (Homo sapiens) (UniProt Q9UIQ6)
Experiment: Inhibition of human IRAP using L-leucine 7-amido-4-methyl coumarin substrate by microplate fluorescence reader based assay

Chain of Leucyl-cystinyl aminopeptidase (Homo sapiens) (Q9UIQ6 whole entry, looked up): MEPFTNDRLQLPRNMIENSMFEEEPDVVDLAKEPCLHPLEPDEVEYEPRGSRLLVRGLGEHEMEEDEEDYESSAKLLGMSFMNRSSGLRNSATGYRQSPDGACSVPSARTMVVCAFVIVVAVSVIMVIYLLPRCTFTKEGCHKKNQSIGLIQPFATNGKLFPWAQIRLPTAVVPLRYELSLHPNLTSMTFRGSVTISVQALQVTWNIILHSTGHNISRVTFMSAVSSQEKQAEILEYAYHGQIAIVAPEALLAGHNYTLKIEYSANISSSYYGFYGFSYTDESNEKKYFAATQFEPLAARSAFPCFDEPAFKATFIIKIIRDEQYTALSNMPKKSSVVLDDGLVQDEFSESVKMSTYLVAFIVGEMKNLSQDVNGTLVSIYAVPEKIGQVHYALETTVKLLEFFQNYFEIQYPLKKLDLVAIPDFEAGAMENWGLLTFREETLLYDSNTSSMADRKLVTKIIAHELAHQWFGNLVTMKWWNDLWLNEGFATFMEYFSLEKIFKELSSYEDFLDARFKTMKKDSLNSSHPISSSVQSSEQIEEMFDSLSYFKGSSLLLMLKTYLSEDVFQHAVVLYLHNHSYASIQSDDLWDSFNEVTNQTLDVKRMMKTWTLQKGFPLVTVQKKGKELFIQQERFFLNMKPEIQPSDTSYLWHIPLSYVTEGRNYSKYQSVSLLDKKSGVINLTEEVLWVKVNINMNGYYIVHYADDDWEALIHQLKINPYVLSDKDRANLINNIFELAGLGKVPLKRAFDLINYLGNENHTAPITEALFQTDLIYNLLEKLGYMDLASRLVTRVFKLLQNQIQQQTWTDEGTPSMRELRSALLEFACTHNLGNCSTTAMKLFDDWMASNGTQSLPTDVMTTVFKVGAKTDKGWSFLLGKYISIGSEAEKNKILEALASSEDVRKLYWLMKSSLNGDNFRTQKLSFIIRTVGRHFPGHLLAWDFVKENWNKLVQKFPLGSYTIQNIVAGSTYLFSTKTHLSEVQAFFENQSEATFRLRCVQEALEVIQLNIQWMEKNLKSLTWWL

| Structure (SMILES) | IC50 [nM] |
| --- | --- |
| C#CC[C@H](CP(=O)(O)[C@@H](N)CCc1ccccc1)C(=O)N[C@@H](Cc1ccccc1)C(N)=O | 2 |
| NC(=O)[C@H](Cc1ccccc1)NC(=O)[C@H](CCC(c1ccccc1)c1ccccc1)CP(=O)(O)[C@@H](N)CCc1ccccc1 | 32 |
| CC(C)CC(CP(=O)(O)[C@@H](N)CCc1ccccc1)C(=O)N[C@@H](CCCCN)C(=O)N[C@@H](Cc1cnc[nH]1)C(=O)N[C@@H](Cc1cnc[nH]1)C(=O)N[C@@H](C)C(=O)N[C@@H](Cc1ccccc1)C(=O)N[C@@H](CO)C(=O)N[C@@H](Cc1ccccc1)C(=O)N[C@@H](CCCCN)C(N)=O (stereo partly drawn) (X1-KHHAFSFK-NH2) | 7.7 |
